According to patent US5792784A, “Coupling product obtained from histamine and an amino acid” (Babizhayev; Marc, priority 1993, dated 1998):

Key:
[1] = Inhibition of deoxyribose oxidation (superoxide from xanthine oxidase/hypoxanthine; TBA/MDA detection); assay type: biochemical; conditions: 10 mM
Text: Several in vitro tests have been carried out in order to reveal the evoked different antioxidant properties.
Experimental procedure described by J. M. C. Gutteridge in Biochemistry Journal, vol. 224 (1984), p. 761-767: oxidation substrate: deoxyribose
Superoxide anions production system: xanthine oxidase/hypoxanthine detection: thiobarbituric acid/malondialdehyde (MDA)

[2] = Inhibition of linoleic acid peroxidation (Fe/ascorbic acid; TBA/MDA); assay type: biochemical; conditions: 25 mM (mixture: 25 mM each), linoleic acid 0.25 mg/ml
Description: oxidation substrate: linoleic acid (0.25 mg/ml), free radicals generating system: Fe/ascorbic acid detection: thiobarbituric acid (TBA)/malondialdehyde (MDA)

[3] = "Peroxidase" type activity on liposome model: reduction of phosphatidylcholine hydroperoxides (PC-OOH); assay type: biochemical
Description: The "peroxidase" type activity also has been evaluated on a "liposome" model. The phosphatidylcholine hydroperoxides (PC-OOH) are prepared according to a similar procedure to the one already described for the linoleic acid monoperoxide.
The peroxide species reduction is followed by dosing the remaining peroxides according to the method laid down by Hicks M and Gebicki J. M.--Anal. Biochem, vol 99, (1979), p. 249-253.

murine splenocytes = assay: Immunostimulating activity in vitro on murine splenocytes (tritiated thymidine incorporation); assay type: cell-based
Text: The procedure is extracted from: J. Kunert-Radek, H. Stepien, K. Lyson and M. Pawlikowski--"Effects of calcium channel modulators on the proliferation of mouse spleen lymphocytes in vitro"--Agents and Actions, vol. 29, Nos 3-4 (1990), p. 254-258.
The cell proliferation is followed by the measurement of the extent of incorporation of tritriated thymidine in the cells, expressed in numbers of desintegrations per mn, deducted from the background.
The results obtained with an immunostimulator of reference, concanavaline A, are given as a comparison.
The immunostimulating effect is expressed by an Index of Stimulation (IS) [formula]
The given values are corresponding to the average of three measures.

[4] = system: cutaneous connective tissue; assay: Repairing of the cutaneous connective tissue after incision in rat (histology); assay type: in vivo, Wistar rats
Description: This experiment has been carried out on a batch of 12 Wistar rats. An incision of a length of 12 mm involving in depth epiderm and derm as a whole was performed. At the end of the healing, the rats are then treated by topical applications of β-alanyl-histadine for three weeks. At the same time, a reference batch of 12 rats have been treated with placebo for the same lasting time of experiment.

lens = assay: Cataract patients: lens opacity (slit lamp, retroillumination, image analysis); assay type: in vivo; conditions: for decrease of the opacity: 24 months, groups 2 and 3; for integration peak of opacity distribution: posterior subcapsular cataract
Text: The study has been designed for a prospective evaluation of the modifications of the lens opacity in patients effected by cataract. All the patients have undergone an initial ophtalmic examination. It involved the making of the medical historical record of the patient, a measurement of the visual acuity at a maximum correction, direct or indirect ophtalmoscopies, an evaluation of the opacities with the slit lamp, a clinical grading of the lens after maximal mydriasis, a classification according to the cataract type, and lens pictures by retroillumination. Moreover, samples of blood have been taken at the beginning, then in follow-up for chemical analysis.
Changes of the lens have been examined in all the patients by using the microscope with the Zeiss slit lamp. The photographic observations obtained with this technique included a base line examination, intermediate studies and a final examination at the end of the treatment period.
In using the technique of the slit lamp, the lens has been pictured layer by layer in order to visualize all the anterior segment of the eye, from the cornea to the posterior capsule.
With this technique, Red reflex examination has been carried out, according to a conventional retroillumination. Then lens modifications were graded according to the anatomical location and the importance of the modification.
Cortical opacities have been graded and pictured in retroillumination. Afterwards this film has been submitted to a measurement of linear densitometry with a microdensitometer. The opacity values have been reported in relative value using a standard scale of opacification. The cortical opacities measurement have been rated also taking into account of the total surface exposed to radiation. The posterior subcapsular opacities have been measured in retroillumination by the longest height, from the lower part to the top and by the greatest width, using the scale of the slit lamp.
Pictures of the lens also were taken on nuclear and cortical opacities and later on they were graded.
The different negatives taken with the slit lamp have been analyzed with a "plumbicon tube". This equipment allows one to transpose with a large accuracy a measurement of intensity of light into an electric signal which is integrated and stored in an analysis system of computerized image. With the help of a specific program, the lens image in that manner "digitized" could be reproduced as a graph in two or three dimensions.
A detailed description of this method of image processing is given in : Babizhayev M. A. Zhukotskii A. V. and Sologub A. A. (1992), "Image analysis of the lens opacities induced in developing chick embryo by glucocorticoid", Exp. Eye Res. Vol. 55, p.521-537.
The represented histograms show in a concrete example the interest of such evaluation method. A case of posterior subcapsular cataract is studied before and after 21/2 months of treatment following topical applications with eye drops containing 1% of β-alanyl-histamine. The histograms give the quantitative distribution of opacities with an integration peak of 58.44±18.14 before treatment, and of 44.95±8.77 after 21/2 months of treatment.
Following the protocol described above, we determine the values of the optic density of the lens according to its opacity as well as the visual acuity, and the whole for 24 months. Considering these two parameters, we obtain tables giving results concerning the modification of the visual acuity at the end of 24 months in Tables 1 and 2, and the results concerning the modification of the visual opacity at the end of 24 months in Tables 3 and 4.

[5] = Tests with peroxidized compounds: reducing behaviour; assay type: biochemical
[6] = Inhibition of phosphatidylcholine liposome peroxidation (Fe/ascorbic acid; TBA/MDA); conditions: 10 mM; control 4.4
Description: oxidation substrate: phosphatidylcholine liposomes
free radicals generating system : Fe/ascorbic acid detection: thiobarbituric acid (TBA)/malondialdehyde (MDA)

[7] = after 21/2 months, eye drops 1%

## NCCC(=O)NCCc1c[nH]cn1 [β-alanyl-histamine]
[1]
  % inhibition of deoxyribose oxidation: 49%
[2]
  % inhibition: 47%
[2]; control 7.95
  MDA per mg of linoleic acid: 4.25 mol MDA per mg of linoleic aci
[3]; 10 mM
  number of moles of PC-OOH reduced/initial number of moles of PC/hour: 0.77 × 10^-3 moles of PC-OOH reduced/initia
[3]; 25 mM
  number of moles of PC-OOH reduced/initial number of moles of PC/hour: 1.56 × 10^-3 moles of PC-OOH reduced/initia
Murine splenocytes
  concentration of maximum immunostimulating effect: 25 µg/mL
  immunostimulating activity versus reference mitogen: comparable with a reference mitogen, concanavaline A
Murine splenocytes; Mus musculus, Splenocyte, 2.5 μg/ml, average of three measures, read-out: Index of Stimulation (IS)
  fold induction at 2.5 µg/mL: 4.8
Murine splenocytes; Mus musculus, Splenocyte, 5 μg/ml, average of three measures, read-out: Index of Stimulation (IS)
  fold induction at 5 µg/mL: 15.7
Murine splenocytes; Mus musculus, Splenocyte, 10 μg/ml, average of three measures, read-out: Index of Stimulation (IS)
  fold induction at 10 µg/mL: 16.9
Murine splenocytes; Mus musculus, Splenocyte, 25 μg/ml, average of three measures, read-out: Index of Stimulation (IS)
  fold induction at 25 µg/mL: 18.6
Murine splenocytes; Mus musculus, Splenocyte, 50 μg/ml, average of three measures, read-out: Index of Stimulation (IS)
  fold induction at 50 µg/mL: 12.8
[4]; capillary layer versus deep layer
  density and aspect of the constituents of the connective tissue: obviously the same in the capillary layer and in the deep layer
[4]; dermic superficial layers
  thin elastic or reticulin fibres: generally more numerous in the dermic superficial layers
[4]; toluidine blue colouring
  fundamental substance: more abundant than normal
[4]; topical, after 3 weeks
  horny-layers: identical to the ones of the surrounding normal epiderm
  restoration of epiderm: The epiderm is well restored
  visibility of scar: the scar is slightly or even not visible on the skin surface
lens; modification 5 @ 9%
  decrease of the opacity: 3
lens; modification 10 @ 14%
  decrease of the opacity: 5
lens; modification 15 @ 19%
  decrease of the opacity: 5
lens; modification 20 @ 24%
  decrease of the opacity: 1
lens; modification +25%
  decrease of the opacity: 5
lens; total
  decrease of the opacity: 19
lens; [7]
  opacities in the posterior subcapsular region of the lens: partial regression of the opacities
  integration peak of opacity distribution: 44.95±8.77
lens; before treatment
  integration peak of opacity distribution: 58.44±18.14
[5]
  reducing behaviour towards peroxidized compounds: behaves in a way comparable to β-alanyl-histidine or carnosine
[6]
  MDA per mg of phospholipids: 2.5 mol MDA per mg of phospholipid
